One experiment addresses T1, YSK4 (Homo sapiens, UniProt Q56UN5).
T1 construct: purchased Eurofins (radiometric) / Eurofins DiscoverX scanMAX / Reaction Biology / SignalChem
T1 sequence (Q56UN5 1-1328): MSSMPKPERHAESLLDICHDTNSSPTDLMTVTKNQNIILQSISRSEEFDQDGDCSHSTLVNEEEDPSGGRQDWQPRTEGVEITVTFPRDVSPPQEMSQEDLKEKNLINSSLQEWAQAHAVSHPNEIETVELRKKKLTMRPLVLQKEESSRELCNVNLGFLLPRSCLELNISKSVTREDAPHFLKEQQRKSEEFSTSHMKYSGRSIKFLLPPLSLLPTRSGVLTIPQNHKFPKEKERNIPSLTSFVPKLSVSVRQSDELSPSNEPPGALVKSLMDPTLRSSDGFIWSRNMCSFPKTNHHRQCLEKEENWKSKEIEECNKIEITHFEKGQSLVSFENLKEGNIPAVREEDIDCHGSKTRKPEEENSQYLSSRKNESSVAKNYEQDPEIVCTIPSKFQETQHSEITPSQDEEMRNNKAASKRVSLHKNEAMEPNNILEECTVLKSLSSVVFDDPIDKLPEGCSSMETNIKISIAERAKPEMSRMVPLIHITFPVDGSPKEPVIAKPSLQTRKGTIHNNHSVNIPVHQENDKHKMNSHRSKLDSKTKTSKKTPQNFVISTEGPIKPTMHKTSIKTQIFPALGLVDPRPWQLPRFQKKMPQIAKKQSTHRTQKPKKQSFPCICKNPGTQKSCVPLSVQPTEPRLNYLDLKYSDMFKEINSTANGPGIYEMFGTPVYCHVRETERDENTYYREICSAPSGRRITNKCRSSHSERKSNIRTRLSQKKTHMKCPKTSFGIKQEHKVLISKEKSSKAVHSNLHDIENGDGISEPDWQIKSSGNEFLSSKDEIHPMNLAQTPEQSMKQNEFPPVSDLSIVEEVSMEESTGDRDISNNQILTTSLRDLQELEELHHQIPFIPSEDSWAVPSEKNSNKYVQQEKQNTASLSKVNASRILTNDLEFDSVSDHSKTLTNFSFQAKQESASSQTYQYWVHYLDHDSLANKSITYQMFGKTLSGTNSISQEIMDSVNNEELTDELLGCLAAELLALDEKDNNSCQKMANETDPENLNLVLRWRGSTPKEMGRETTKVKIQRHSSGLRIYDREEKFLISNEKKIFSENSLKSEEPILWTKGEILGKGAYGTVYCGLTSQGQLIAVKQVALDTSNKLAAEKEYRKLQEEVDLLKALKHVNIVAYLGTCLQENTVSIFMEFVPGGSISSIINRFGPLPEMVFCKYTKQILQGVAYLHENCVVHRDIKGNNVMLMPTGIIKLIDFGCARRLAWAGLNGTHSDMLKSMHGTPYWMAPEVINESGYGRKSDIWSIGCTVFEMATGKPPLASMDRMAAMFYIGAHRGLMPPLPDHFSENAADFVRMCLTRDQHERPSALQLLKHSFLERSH
Nature of the experiment: DiscoverX scanMAX binding assay. Conditions: 1 μM. The text has this:
This panel includes 403 wild-type (WT) human kinases but not TTBK1/2. […] Substantial overlap between the MRC and DiscoverX scanMAX kinase panels allows the comparison of results for the same kinases in two different assay formats (enzymatic versus binding, respectively) at the same concentration. Selectivity results are included in two columns within Table 1. […] The rightmost column converts this selectivity score into the number of kinases with a PoC < 10 in the scanMAX panel.
The Eurofins DiscoverX Corporation scanMAX assay platform was employed to assess the selectivity of specific analogs at a single concentration (1 µM). As described previously, this assay platform profiles a compound against 403 wild-type human kinases and delivers percent of control (PoC) values. These percent of control values are included in Table 1 and corresponding kinome tree diagrams as well as tables for each analog included in Fig. S1.

For a further experiment, the target named is T2, NLuc-TTBK2 (Homo sapiens, UniProt Q6IQ55).
T2 construct: host or cells: HEK293
T2 sequence (Q6IQ55 whole entry): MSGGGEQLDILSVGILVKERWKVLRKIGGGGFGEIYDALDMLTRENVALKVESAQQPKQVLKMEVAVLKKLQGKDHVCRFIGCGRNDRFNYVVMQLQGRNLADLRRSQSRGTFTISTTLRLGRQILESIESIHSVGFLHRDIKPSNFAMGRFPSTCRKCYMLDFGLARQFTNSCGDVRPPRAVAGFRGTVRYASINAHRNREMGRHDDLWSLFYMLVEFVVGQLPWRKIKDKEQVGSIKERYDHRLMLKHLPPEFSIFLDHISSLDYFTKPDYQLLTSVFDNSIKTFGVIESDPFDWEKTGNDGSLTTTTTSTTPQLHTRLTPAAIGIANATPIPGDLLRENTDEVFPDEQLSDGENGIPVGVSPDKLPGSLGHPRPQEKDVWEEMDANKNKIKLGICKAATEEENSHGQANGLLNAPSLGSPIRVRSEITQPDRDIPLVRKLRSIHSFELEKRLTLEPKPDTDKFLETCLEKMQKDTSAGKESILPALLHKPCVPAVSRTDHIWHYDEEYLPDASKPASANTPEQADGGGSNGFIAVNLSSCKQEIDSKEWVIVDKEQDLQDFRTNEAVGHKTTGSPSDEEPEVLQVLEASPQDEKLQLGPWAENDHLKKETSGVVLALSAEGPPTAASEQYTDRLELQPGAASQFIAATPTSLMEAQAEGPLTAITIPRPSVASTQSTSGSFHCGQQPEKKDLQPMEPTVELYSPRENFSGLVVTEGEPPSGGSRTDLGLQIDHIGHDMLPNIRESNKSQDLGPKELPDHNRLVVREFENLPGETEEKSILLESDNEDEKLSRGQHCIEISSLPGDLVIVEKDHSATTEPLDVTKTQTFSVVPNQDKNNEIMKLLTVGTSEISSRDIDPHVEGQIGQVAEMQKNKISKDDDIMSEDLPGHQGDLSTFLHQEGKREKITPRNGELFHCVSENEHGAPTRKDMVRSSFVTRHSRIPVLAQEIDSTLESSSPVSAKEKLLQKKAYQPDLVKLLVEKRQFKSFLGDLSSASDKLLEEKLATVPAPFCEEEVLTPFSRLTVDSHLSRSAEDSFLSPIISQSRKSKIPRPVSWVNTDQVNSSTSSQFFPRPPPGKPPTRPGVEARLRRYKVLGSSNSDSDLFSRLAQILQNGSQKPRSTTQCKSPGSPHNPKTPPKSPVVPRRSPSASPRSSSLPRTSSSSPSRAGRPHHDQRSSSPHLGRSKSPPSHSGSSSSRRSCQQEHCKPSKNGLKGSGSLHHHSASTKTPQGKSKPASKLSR
Nature of the experiment: TTBK2 NanoBRET cellular target engagement assay in HEK293 cells. Format: cell-based. On the procedure: HEK293 cells were transfected with constructs of TTBK1 or TTBK2 tagged with NLuc on the N- or C-terminus as previously described[43] Constructs for NanoBRET measurements of TTBK1 (NLuc-TTBK1 and TTBK1-NLuc) and TTBK2 (NLuc-TTBK2 and TTBK2-NLuc) were kindly provided by Promega. NLuc orientations used in the respective assays are indicated. Cells were plated in 96-well tissue culture treated plates (Corning 3917) at a cell density of 2 × 10^5 cells/mL, with a total volume of 100 μL per well in DMEM. […] NanoBRET plates were read after addition of 50 μL of a stock solution (3X) containing NanoBRET NanoGlo substrate (Promega N2161), extracellular NanoLuc inhibitor (Promega N2161) and Opti-MEM. For a 96-well plate the 3X stock solution was prepared with 30 μL of NanoBRET NanoGlo substrate, 10 μL of extracellular NanoLuc inhibitor, and 4960 μL of Opti-MEM without phenol red. […] HEK293 cells were transfected with NLuc-TTBK1 or NLuc-TTBK2. […] One biological replicate was plotted in GraphPad Prism with log[inhibitor] vs. response (three parameters) and included in Fig. 3C. NanoBRET assays were carried out in dose-response format as described previously. NLuc orientations used in the respective assays are as follows: NLuc-TTBK1, NLuc-TTBK2, and PIP4K2C-NLuc (for PI5[…]γ). […] Data are reported as IC50 ± standard error mean (SEM). For PI5[…]γ, 9 was tested in 12-point dose-response format with a top concentration of 10 μM (data in Table S2). One biological replicate was plotted in GraphPad Prism with log[inhibitor] vs. response (three parameters).
Background: Bioluminescence resonance energy transfer reports proximity on the nanometre scale.

Where [1] appears, read: intact HEK293 cells, 2 μM tracer 29, read-out: TTBK2 intact cell NB IC50.
Setting [2] is: permeabilized HEK293 cells (digitonin), 2 μM tracer 29, read-out: TTBK2 permeabilized cell NB IC50.

Where two headings read alike, the source gives them in different places.

We go through five compounds from paper PMC10104807, “Modulation of tau tubulin kinases (TTBK1 and TTBK2) impacts ciliogenesis” (Scientific Reports, 2023).

Regarding `CC(C)(O)C#Cc1ccc2[nH]c3c(c2c1)-c1nc(N)ncc1CCC3` [AMG28, reference compound], on YSK4, the “YSK4 % control at 1000nM / DiscoverX PoC value” worked out at 0 % control.
On to `CC(C)(O)C#Cc1ccc2[nH]c3c(c2c1)-c1nc(N)ncc1CC3` [Compound 1], for which the IC50 on NLuc-TTBK2 (setting [1]) came out at 16 µM; at NLuc-TTBK2 (setting [2]) it was 3.6 µM. The “YSK4 % control at 1000nM / DiscoverX PoC value” at YSK4 is 0 % control.
As to `CC(C)(O)C#Cc1ccc2[nH]c3c(c2c1)-c1nc(N)ncc1CCCC3` [Compound 2], the IC50 at NLuc-TTBK2 (setting [1]) is > 30 µM; on NLuc-TTBK2 (setting [2]), 17 µM.
In the case of `CC(C)(O)C#Cc1ccc2[nH]cc(-c3ccnc(N)n3)c2c1` [Compound 3], the IC50 worked out at 11.7 ± 3.7 µM at NLuc-TTBK2 (setting [1]); 2.52 ± 0.62 µM at NLuc-TTBK2 (setting [2]); 6.9 µM on NLuc-TTBK2 (tracer titration experiment, 2 μM tracer 29, n = 1, read-out: NL-TTBK2 IC50, tracer titration). Further, the “YSK4 % control at 1000nM / DiscoverX PoC value” at YSK4 turned out to be 0 % control.
In the case of `COC(C)(C)C#Cc1ccc2[nH]c3c(c2c1)-c1nc(N)ncc1CCC3` [Compound 11], the IC50 at NLuc-TTBK2 (setting [1]) and on NLuc-TTBK2 (setting [2]) was > 30 µM each time.
